One may read the IC50 as the concentration needed to halve the response being measured.

What all share (format): biochemical
Test [1] concerns the target SIK2 (Homo sapiens, UniProt Q9H0K1). Kind of test: Enzymatic activity assay SIK2, RapidFire mass spectrometry (phosphorylation of CHK-peptide). To be noted: RapidFire MS, inhibition of SIK2; read-out: SIK2 RF IC50. A digest of the protocol:
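Read-out is the summed phospho-species fraction of CHK-peptide by RapidFire mass spectrometry, normalized between DMSO and 1 μM YKL-05-099. The reaction used 0.5 nM SIK2, 100 μM ATP and 10 μM peptide solutions in HEPES pH 7.0/10 mM magnesium acetate for 45 min at ambient temperature.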

Test [2] concerns the target SIK3 (Homo sapiens, UniProt Q9Y2K2). Put plainly: Enzymatic activity assay SIK3, RapidFire mass spectrometry (phosphorylation of CHK-peptide). The conditions noted are these: RapidFire MS, inhibition of SIK3; read-out: SIK3 RF IC50. A digest of the protocol: (§1)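 Human SIK1/2/3, 5/0.5/1.5 nM; 12.5 mM HEPES pH 7.0, 10 mM Mg acetate, 0.005% BSA. 30 min cpd pre-inc, + CHK-peptide (10 μM soln) + ATP (100 μM soln), 45 min RT. Formic acid stop; RF-MS phospho ratio; IC50.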

Test [3] concerns the target SIK1 (Homo sapiens, UniProt P57059). Kind of test: Enzymatic activity assay SIK1, RapidFire mass spectrometry (phosphorylation of CHK-peptide). The conditions noted are these: RapidFire MS, inhibition of SIK1; read-out: SIK1 RF IC50. Summed up:
as §1

SIK2, sequence (Q9H0K1 whole entry): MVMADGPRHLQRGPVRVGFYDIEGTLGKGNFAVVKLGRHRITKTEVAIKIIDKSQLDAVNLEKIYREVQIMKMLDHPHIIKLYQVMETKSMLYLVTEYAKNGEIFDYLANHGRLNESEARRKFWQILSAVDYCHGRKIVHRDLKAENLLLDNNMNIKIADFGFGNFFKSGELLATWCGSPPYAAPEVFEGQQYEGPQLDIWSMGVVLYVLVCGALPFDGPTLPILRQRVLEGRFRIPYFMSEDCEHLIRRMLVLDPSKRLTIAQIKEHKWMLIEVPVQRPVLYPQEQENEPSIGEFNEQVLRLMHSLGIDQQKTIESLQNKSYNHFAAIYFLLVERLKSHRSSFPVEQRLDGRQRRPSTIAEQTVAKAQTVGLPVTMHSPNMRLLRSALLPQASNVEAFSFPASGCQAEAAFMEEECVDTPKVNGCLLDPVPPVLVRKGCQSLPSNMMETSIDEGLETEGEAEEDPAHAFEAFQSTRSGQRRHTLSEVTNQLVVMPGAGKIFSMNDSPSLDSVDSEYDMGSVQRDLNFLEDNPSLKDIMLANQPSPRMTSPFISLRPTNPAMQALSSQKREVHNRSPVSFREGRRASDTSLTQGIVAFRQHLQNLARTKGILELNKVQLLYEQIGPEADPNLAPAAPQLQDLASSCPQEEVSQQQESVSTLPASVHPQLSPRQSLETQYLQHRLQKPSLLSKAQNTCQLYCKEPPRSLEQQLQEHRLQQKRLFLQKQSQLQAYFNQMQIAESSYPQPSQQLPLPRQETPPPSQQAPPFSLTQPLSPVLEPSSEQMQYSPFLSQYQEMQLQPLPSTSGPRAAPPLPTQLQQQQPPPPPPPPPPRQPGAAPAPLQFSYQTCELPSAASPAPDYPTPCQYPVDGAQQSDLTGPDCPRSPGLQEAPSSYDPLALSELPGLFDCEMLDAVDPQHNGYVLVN
SIK3, sequence (Q9Y2K2 whole entry): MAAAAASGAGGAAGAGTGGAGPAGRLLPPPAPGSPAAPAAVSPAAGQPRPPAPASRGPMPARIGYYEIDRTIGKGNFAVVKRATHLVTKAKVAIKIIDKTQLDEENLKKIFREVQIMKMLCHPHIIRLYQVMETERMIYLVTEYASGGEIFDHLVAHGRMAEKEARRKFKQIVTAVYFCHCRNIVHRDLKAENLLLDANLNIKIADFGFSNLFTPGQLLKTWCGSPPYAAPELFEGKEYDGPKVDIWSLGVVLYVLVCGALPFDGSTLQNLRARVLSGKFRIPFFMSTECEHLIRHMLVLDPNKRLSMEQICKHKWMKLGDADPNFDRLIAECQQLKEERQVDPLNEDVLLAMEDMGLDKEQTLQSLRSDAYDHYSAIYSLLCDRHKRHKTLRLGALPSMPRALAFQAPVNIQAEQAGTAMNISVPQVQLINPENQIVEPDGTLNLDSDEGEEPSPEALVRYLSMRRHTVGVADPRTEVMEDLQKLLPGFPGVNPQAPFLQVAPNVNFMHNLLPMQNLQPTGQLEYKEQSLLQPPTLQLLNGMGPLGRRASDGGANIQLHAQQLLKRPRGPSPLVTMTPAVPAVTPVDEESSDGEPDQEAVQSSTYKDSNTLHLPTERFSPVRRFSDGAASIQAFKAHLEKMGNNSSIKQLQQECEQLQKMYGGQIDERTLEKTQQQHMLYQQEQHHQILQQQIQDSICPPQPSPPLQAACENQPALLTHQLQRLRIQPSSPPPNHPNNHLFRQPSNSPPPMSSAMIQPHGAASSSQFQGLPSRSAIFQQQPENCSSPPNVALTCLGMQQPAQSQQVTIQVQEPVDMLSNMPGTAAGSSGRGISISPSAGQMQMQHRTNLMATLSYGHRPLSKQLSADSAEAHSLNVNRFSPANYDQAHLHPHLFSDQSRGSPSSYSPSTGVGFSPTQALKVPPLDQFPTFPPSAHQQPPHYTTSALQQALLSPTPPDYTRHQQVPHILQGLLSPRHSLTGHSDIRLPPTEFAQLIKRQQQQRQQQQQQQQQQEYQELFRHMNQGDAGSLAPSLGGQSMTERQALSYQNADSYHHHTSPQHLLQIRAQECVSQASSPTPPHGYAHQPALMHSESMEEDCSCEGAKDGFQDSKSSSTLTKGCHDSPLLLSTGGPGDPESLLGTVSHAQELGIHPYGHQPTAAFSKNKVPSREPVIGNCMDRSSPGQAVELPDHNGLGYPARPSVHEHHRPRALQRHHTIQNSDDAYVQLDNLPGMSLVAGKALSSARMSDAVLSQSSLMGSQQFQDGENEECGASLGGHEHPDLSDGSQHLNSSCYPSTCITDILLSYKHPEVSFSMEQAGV
SIK1, sequence (P57059 whole entry): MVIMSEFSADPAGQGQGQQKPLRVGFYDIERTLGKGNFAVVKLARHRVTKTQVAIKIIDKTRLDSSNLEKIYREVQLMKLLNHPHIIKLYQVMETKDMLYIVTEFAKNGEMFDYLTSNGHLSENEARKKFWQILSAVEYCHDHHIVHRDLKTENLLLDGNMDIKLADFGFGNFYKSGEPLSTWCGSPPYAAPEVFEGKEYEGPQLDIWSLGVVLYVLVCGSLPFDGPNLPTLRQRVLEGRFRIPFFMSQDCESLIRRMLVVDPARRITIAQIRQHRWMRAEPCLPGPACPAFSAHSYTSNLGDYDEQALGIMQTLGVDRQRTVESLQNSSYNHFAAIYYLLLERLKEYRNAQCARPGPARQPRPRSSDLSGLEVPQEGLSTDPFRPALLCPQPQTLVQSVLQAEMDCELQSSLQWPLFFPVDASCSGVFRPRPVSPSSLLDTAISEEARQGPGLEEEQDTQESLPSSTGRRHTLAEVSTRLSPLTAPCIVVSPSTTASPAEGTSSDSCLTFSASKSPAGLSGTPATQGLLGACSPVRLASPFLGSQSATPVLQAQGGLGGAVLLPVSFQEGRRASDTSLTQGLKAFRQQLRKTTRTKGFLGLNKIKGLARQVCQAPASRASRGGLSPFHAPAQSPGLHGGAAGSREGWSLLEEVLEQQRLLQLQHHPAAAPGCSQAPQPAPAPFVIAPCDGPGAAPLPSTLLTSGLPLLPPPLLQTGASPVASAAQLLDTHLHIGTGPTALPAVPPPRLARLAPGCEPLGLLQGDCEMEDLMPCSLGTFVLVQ

In the case of `Cc1cc(C#N)nn1-c1nc(-n2cnc3cc(N4CCCC4C(=O)N(C)C)ccc32)ccc1C(C)O` (stereo not drawn) [Example 312, 1-[1-[6-(3-cyano-5-methyl-pyrazol-1-yl)-5-(1-hydroxyethyl)-2-pyridyl]benzimidazol-5-yl]-N,N-dimethyl-pyrrolidine-2-carboxamide], the IC50 in test [1] turned out to be 0.0796 µM; in test [2], 0.0856 µM; in test [3], 0.25 µM.

`Cc1ccc(Nc2ccc3c(c2)ncn3-c2ccc(C(C)O)c(-c3cn(CC(F)F)nc3C)n2)nn1` (stereo not drawn) [Example 313, 1-[2-[1-(2,2-difluoroethyl)-3-methyl-pyrazol-4-yl]-6-[5-[(6-methylpyridazin-3-yl)amino]benzimidazol-1-yl]-3-pyridyl]ethanol]: the IC50 in test [1] came out at 0.0011 µM; in test [2], 0.0014 µM; in test [3], 0.138 µM.

For `Cc1ccc(Nc2cc3c(cc2F)ncn3-c2ccc(CO)c(-n3nc(C#N)cc3C)n2)nn1` [Example 314, 1-[6-[5-fluoro-6-[(6-methylpyridazin-3-yl)amino]benzimidazol-1-yl]-3-(hydroxymethyl)-2-pyridyl]-5-methyl-pyrazole-3-carbonitrile], the IC50 in test [1] came to 0.0524 µM; in test [2], 0.0651 µM; in test [3], 0.07 µM.

Take `Cc1ccc(Nc2ccc3c(c2)ncn3-c2ccc(CO)c(-c3cn(CC(F)(F)F)nc3C)n2)nn1` [Example 315, [6-[5-[(6-methylpyridazin-3-yl)amino]benzimidazol-1-yl]-2-[3-methyl-1-(2,2,2-trifluoroethyl)pyrazol-4-yl]-3-pyridyl]methanol]: the IC50 was found to be 0.0073 µM in test [1], 0.0029 µM in test [2] and 1.09 µM in test [3].

For the molecule `Cc1ccc(Nc2ccc3c(c2)ncn3-c2ccc(CO)c(-c3cnn(CC(F)(F)F)c3C)n2)nn1` [Example 316, [6-[5-[(6-methylpyridazin-3-yl)amino]benzimidazol-1-yl]-2-[5-methyl-1-(2,2,2-trifluoroethyl)pyrazol-4-yl]-3-pyridyl]methanol], the IC50 in test [1] is 0.0151 µM; in test [2] it was 0.0046 µM; in test [3], 0.975 µM.

Consider `Cc1cc(C(F)F)nn1-c1nc(-n2cnc3cc(Nc4cc5c(nn4)CCOC5)ccc32)ccc1CO` [Example 317, [2-[3-(difluoromethyl)-5-methyl-pyrazol-1-yl]-6-[5-(7,8-dihydro-5H-pyrano[4,3-c]pyridazin-3-ylamino)benzimidazol-1-yl]-3-pyridyl]methanol], for which the IC50 in test [1] was found to be 0.0076 µM; in test [2], 0.0026 µM; in test [3], 0.961 µM.

`Cc1cc(C(F)F)nn1-c1nc(-n2cnc3cc(N4C[C@H]5OCCN(C)[C@H]5C4)ccc32)ccc1CO` [Example 318, [6-[5-[(4aS,7aR)-4-methyl-2,3,4a,5,7,7a-hexahydropyrrolo[3,4-b][1,4]oxazin-6-yl]benzimidazol-1-yl]-2-[3-(difluoromethyl)-5-methyl-pyrazol-1-yl]-3-pyridyl]methanol]: the 50% inhibitory concentration (IC50) in test [1] worked out at 0.0501 µM; in test [2], 0.065 µM; in test [3] it was 0.327 µM.

For the molecule `Cc1ccc(Nc2cc3ncn(-c4ccc(CO)c(-n5nc(C(F)F)cc5C)n4)c3cc2F)nn1` [Example 319, [2-[3-(difluoromethyl)-5-methyl-pyrazol-1-yl]-6-[6-fluoro-5-[(6-methylpyridazin-3-yl)amino]benzimidazol-1-yl]-3-pyridyl]methanol], the concentration for half-maximal inhibition (IC50) in test [1] stood at 0.0067 µM; in test [2], 0.007 µM; in test [3], 2.12 µM.

`Cc1ccc(Nc2ccc3c(c2)ncn3-c2ccc(C(C)O)c(N3CCOC(C(F)(F)F)C3)n2)nn1` (stereo not drawn) [Example 320, 1-[6-[5-[(6-methylpyridazin-3-yl)amino]benzimidazol-1-yl]-2-[2-(trifluoromethyl)morpholin-4-yl]-3-pyridyl]ethanol]: the IC50 in test [1] was determined as 0.0653 µM; in test [2], 0.0095 µM; in test [3], 4.86 µM.

For `Cc1ccc(Nc2ccc3c(c2)ncn3-c2ccc(C(C)O)c(N3CC4CC4(C#N)C3)n2)nn1` (stereo not drawn) [Example 321, 3-[3-(1-hydroxyethyl)-6-[5-[(6-methylpyridazin-3-yl)amino]benzimidazol-1-yl]-2-pyridyl]-3-azabicyclo[3.1.0]hexane-1-carbonitrile], the values for the IC50 in test [1], in test [2] and in test [3] were 0.0192 µM, 0.0035 µM and 1.1 µM, respectively.

For `Cc1ccc(Nc2ccc3c(c2)ncn3-c2ccc(C(C)O)c(N3CC4CC3CC4(F)F)n2)nn1` (stereo not drawn) [Example 322, 1-[2-(5,5-difluoro-2-azabicyclo[2.2.1]heptan-2-yl)-6-[5-[(6-methylpyridazin-3-yl)amino]benzimidazol-1-yl]-3-pyridyl]ethanol], the results for the IC50 in test [1], in test [2] and in test [3] were 0.0163 µM, 0.0024 µM and 0.966 µM, respectively.

Take `Cc1ccc(Nc2ccc3c(c2)ncn3-c2ccc(C(C)O)c(N3CCOC(C(F)F)C3)n2)nn1` (stereo not drawn) [Example 323, 1-[2-[2-(difluoromethyl)morpholin-4-yl]-6-[5-[(6-methylpyridazin-3-yl)amino]benzimidazol-1-yl]-3-pyridyl]ethanol]: the values for the half-maximal inhibitory concentration (IC50) in test [1], in test [2] and in test [3] were 0.0485 µM, 0.0071 µM and 2.53 µM, respectively.

For `Cc1ccc(Nc2ccc3c(c2)ncn3-c2ccc(C(C)O)c(N3CC4CC3C(F)(F)C4)n2)nn1` (stereo not drawn) [Example 324, 1-[2-(6,6-difluoro-2-azabicyclo[2.2.1]heptan-2-yl)-6-[5-[(6-methylpyridazin-3-yl)amino]benzimidazol-1-yl]-3-pyridyl]ethanol], the IC50 in test [1] was found to be 0.0105 µM; in test [2], 0.0008 µM; in test [3], 0.577 µM.

In the case of `Cc1ccc(Nc2ccc3c(c2)ncn3-c2ccc(C(C)O)c(N3CC(C(F)F)C4(CC4)C3)n2)nn1` (stereo not drawn) [Example 325, 1-[2-[7-(difluoromethyl)-5-azaspiro[2.4]heptan-5-yl]-6-[5-[(6-methylpyridazin-3-yl)amino]benzimidazol-1-yl]-3-pyridyl]ethanol], the IC50 in test [1] was determined as 0.0214 µM; in test [2], 0.0034 µM; in test [3], 1.12 µM.

For the molecule `Cc1ccc(Nc2ccc3c(c2)ncn3-c2ccc(C(C)O)c(N3CC4CC(F)(F)C4C3)n2)nn1` (stereo not drawn) [Example 326, 1-[2-(6,6-difluoro-3-azabicyclo[3.2.0]heptan-3-yl)-6-[5-[(6-methylpyridazin-3-yl)amino]benzimidazol-1-yl]-3-pyridyl]ethanol], the IC50 in test [1] amounted to 0.0671 µM; in test [2], 0.0078 µM; in test [3] it was 1.67 µM.

Turning to `Cc1cc(C#N)nn1-c1nc(-n2cnc3cc(NC(=O)C4CC4)ccc32)ccc1C(C)O` (stereo not drawn) [Example 327, N-[1-[6-(3-cyano-5-methyl-pyrazol-1-yl)-5-(1-hydroxyethyl)-2-pyridyl]benzimidazol-5-yl]cyclopropanecarboxamide], the IC50 in test [1] was found to be 0.0072 µM; in test [2], 0.0041 µM; in test [3] it was 0.04 µM.

For the molecule `Cc1cc(C#N)nn1-c1nc(-n2cnc3ccc(NC(=O)C4CC4)cc32)ccc1C(C)O` (stereo not drawn) [Example 328, N-[3-[6-(3-cyano-5-methyl-pyrazol-1-yl)-5-(1-hydroxyethyl)-2-pyridyl]benzimidazol-5-yl]cyclopropanecarboxamide], the IC50 in test [1] stood at 0.0661 µM; in test [2], 0.0365 µM; in test [3], 0.127 µM.

(Values after patent US20240383875A1, “Benzimidazole Pyridine Derivatives” (Hoffmann-La Roche Inc., priority 2022, published 2024).)
